Laboratory results: US20240109903A1, “SUBSTITUTED HETEROCYCLES FOR TREATING CANCER” (Northwestern University, priority 2022, published 2024)

Experiments:
Type in all cases: cell-based
[1] = system: M14; assay: NCI 60 five-dose screen M14; conditions: Homo sapiens, five-dose; for CC50: read-out: LC50 (the source's name) (converted)
[2] = system: PC-3; assay: NCI 60 five-dose screen PC-3; conditions: Homo sapiens, five-dose; for CC50: read-out: LC50 (the source's name) (converted)
[3] = system: RXF 393; assay: NCI 60 five-dose screen RXF 393; conditions: Homo sapiens, five-dose; for CC50: read-out: LC50 (the source's name) (converted)
[4] = system: MALME-3M; assay: NCI 60 five-dose screen MALME-3M; conditions: Homo sapiens, MALME-3M, five-dose; for CC50: read-out: LC50 (the source's name) (converted)
[5] = system: SW-620; assay: NCI 60 five-dose screen SW-620; conditions: Homo sapiens, five-dose; for CC50: read-out: LC50 (the source's name) (converted)
[6] = system: HL-60(TB); assay: NCI 60 five-dose screen HL-60(TB); conditions: Homo sapiens, five-dose; for CC50: read-out: LC50 (the source's name) (converted)
[7] = system: T-47D; assay: NCI 60 five-dose screen T-47D; conditions: Homo sapiens, T47D, five-dose; for CC50: read-out: LC50 (the source's name)
[8] = system: U251; assay: NCI 60 five-dose screen U251; conditions: Homo sapiens, U-251, five-dose; for CC50: read-out: LC50 (the source's name) (converted)
[9] = system: RPMI-8226; assay: NCI 60 five-dose screen RPMI-8226; conditions: Homo sapiens, five-dose; for CC50: read-out: LC50 (the source's name)
[10] = system: SNB-19; assay: NCI 60 five-dose screen SNB-19; conditions: Homo sapiens, five-dose; for CC50: read-out: LC50 (the source's name) (converted)
[11] = system: SF-539; assay: NCI 60 five-dose screen SF-539; conditions: Homo sapiens, five-dose; for CC50: read-out: LC50 (the source's name) (converted)
[12] = system: MCF7; assay: NCI 60 five-dose screen MCF7; conditions: Homo sapiens, five-dose; for CC50: read-out: LC50 (the source's name) (converted)
[13] = system: OVCAR-3; assay: NCI 60 five-dose screen OVCAR-3; conditions: Homo sapiens, five-dose; for CC50: read-out: LC50 (the source's name) (converted)
[14] = system: 786-0; assay: NCI 60 five-dose screen 786-0; conditions: Homo sapiens, five-dose; for CC50: read-out: LC50 (the source's name) (converted)
[15] = system: MOLT-4; assay: NCI 60 five-dose screen MOLT-4; conditions: Homo sapiens, five-dose; for CC50: read-out: LC50 (the source's name)
[16] = system: ACHN; assay: NCI 60 five-dose screen ACHN; conditions: Homo sapiens, five-dose; for CC50: read-out: LC50 (the source's name) (converted)
[17] = system: NCI-H522; assay: NCI 60 five-dose screen NCI-H522; conditions: Homo sapiens, five-dose
[18] = system: SK-MEL-28; assay: NCI 60 five-dose screen SK-MEL-28; conditions: Homo sapiens, five-dose; for CC50: read-out: LC50 (the source's name) (converted)
[19] = system: TK-10; assay: NCI 60 five-dose screen TK-10; conditions: Homo sapiens, five-dose; for CC50: read-out: LC50 (the source's name) (converted)
[20] = system: HS 578T; assay: NCI 60 five-dose screen HS 578T; conditions: Homo sapiens, five-dose; for CC50: read-out: LC50 (the source's name)
[21] = system: NCI-H460; assay: NCI 60 five-dose screen NCI-H460; conditions: Homo sapiens, five-dose; for CC50: read-out: LC50 (the source's name) (converted)
[22] = system: IGROV1; assay: NCI 60 five-dose screen IGROV1; conditions: Homo sapiens, IGROV-1, five-dose; for CC50: read-out: LC50 (the source's name) (converted)
[23] = system: MDA-MB-435; assay: NCI 60 five-dose screen MDA-MB-435; conditions: Homo sapiens, five-dose; for CC50: read-out: LC50 (the source's name) (converted)
[24] = system: A549/ATCC; assay: NCI 60 five-dose screen A549/ATCC; conditions: Homo sapiens, five-dose; for CC50: read-out: LC50 (the source's name) (converted)

## FC(F)(F)c1cc2c(Cl)ncnc2n1CCN1CCCCC1 [NUCC-0226679]
[1]
  GI50: 12.9 µM
  IC50: 22.4 µM
  IC (TGI): 33.1 µM
  CC50: 87.1 µM
[2]
  GI50: 15.1 µM
  IC50: 25.7 µM
  IC (TGI): 47.9 µM
  CC50: ≥ 100 µM
[3]
  GI50: 15.5 µM
  IC50: 45.7 µM
  IC (TGI): 40.7 µM
  CC50: ≥ 100 µM
[4]
  GI50: 19.1 µM
  IC50: 63.1 µM
  IC (TGI): 55 µM
  CC50: ≥ 100 µM
[5]
  GI50: 11.2 µM
  IC50: 15.8 µM
  IC (TGI): 28.8 µM
  CC50: 74.1 µM
[6]
  GI50: 2.09 µM
  IC50: 4.37 µM
  IC (TGI): 7.41 µM
  CC50: ≥ 100 µM
[7]
  GI50: 21.9 µM
  IC50: 70.8 µM
  IC (TGI): 100 µM
  CC50: ≥ 100 µM
[8]
  GI50: 14.1 µM
  IC50: 22.9 µM
  IC (TGI): 34.7 µM
  CC50: 87.1 µM
[9]
  GI50: 31.6 µM
  IC50: 45.7 µM
  IC (TGI): 100 µM
  CC50: ≥ 100 µM
[10]
  GI50: 15.1 µM
  IC50: 28.2 µM
  IC (TGI): 30.9 µM
  CC50: 64.6 µM
[11]
  GI50: 17 µM
  IC50: 31.6 µM
  IC (TGI): 36.3 µM
  CC50: 75.9 µM
[12]
  GI50: 19.5 µM
  IC50: 30.2 µM
  IC (TGI): 75.9 µM
  CC50: ≥ 100 µM
[13]
  GI50: 17.8 µM
  IC50: 33.1 µM
  IC (TGI): 35.5 µM
  CC50: 72.4 µM
[14]
  GI50: 39.8 µM
  IC50: 66.1 µM
  IC (TGI): 100 µM
  CC50: ≥ 100 µM
[15]
  GI50: 10.5 µM
  IC50: 25.1 µM
  IC (TGI): 55 µM
  CC50: ≥ 100 µM
[16]
  GI50: 6.46 µM
  IC50: 17 µM
  IC (TGI): 100 µM
  CC50: ≥ 100 µM
[17]
  GI50: 1.7 µM
  IC50: 3.24 µM
  IC (TGI): 3.47 µM
[18]
  GI50: 15.8 µM
  IC50: 30.2 µM
  IC (TGI): 38 µM
  CC50: 89.1 µM
[19]
  GI50: 100 µM
  IC50: 100 µM
  IC (TGI): 100 µM
  CC50: ≥ 100 µM
[20]
  GI50: 16.6 µM
  IC50: 100 µM
  IC (TGI): 60.3 µM
  CC50: ≥ 100 µM
[21]
  GI50: 18.2 µM
  IC50: 26.3 µM
  IC (TGI): 50.1 µM
  CC50: ≥ 100 µM
[22]
  GI50: 2.95 µM
  IC50: 4.37 µM
  IC (TGI): 10.2 µM
  CC50: 38 µM
[23]
  GI50: 13.2 µM
  IC50: 21.9 µM
  IC (TGI): 30.2 µM
  CC50: 67.6 µM
[24]
  GI50: 79.4 µM
  IC50: 100 µM
  IC (TGI): 100 µM
  CC50: ≥ 100 µM

## FC(F)(F)c1cc2c(Cl)ncnc2n1CCN1CCOCC1 [NUCC-0226680]
[1]
  GI50: 11.5 µM
  IC50: 20.4 µM
  IC (TGI): 36.3 µM
  CC50: ≥ 100 µM
[2]
  GI50: 11.2 µM
  IC50: 19.1 µM
  IC (TGI): 36.3 µM
  CC50: ≥ 100 µM
[3]
  GI50: 14.8 µM
  IC50: 42.7 µM
  IC (TGI): 40.7 µM
  CC50: ≥ 100 µM
[4]
  GI50: 21.9 µM
  IC50: 87.1 µM
  IC (TGI): 67.6 µM
  CC50: ≥ 100 µM
[5]
  GI50: 10.5 µM
  IC50: 14.5 µM
  IC (TGI): 56.2 µM
  CC50: ≥ 100 µM
[6]
  GI50: 2.09 µM
  IC50: 3.89 µM
  IC (TGI): 6.03 µM
  CC50: 66.1 µM
[7]
  GI50: 38.9 µM
  IC50: 100 µM
  IC (TGI): 100 µM
  CC50: ≥ 100 µM
[8]
  GI50: 14.8 µM
  IC50: 24 µM
  IC (TGI): 38.9 µM
  CC50: ≥ 100 µM
[9]
  GI50: 31.6 µM
  IC50: 46.8 µM
  IC (TGI): 100 µM
  CC50: ≥ 100 µM
[10]
  GI50: 15.5 µM
  IC50: 28.8 µM
  IC (TGI): 33.1 µM
  CC50: 70.8 µM
[11]
  GI50: 18.2 µM
  IC50: 33.9 µM
  IC (TGI): 42.7 µM
  CC50: 97.7 µM
[12]
  GI50: 25.1 µM
  IC50: 35.5 µM
  IC (TGI): 100 µM
  CC50: ≥ 100 µM
[13]
  GI50: 19.5 µM
  IC50: 37.2 µM
  IC (TGI): 43.7 µM
  CC50: 97.7 µM
[14]
  GI50: 37.2 µM
  IC50: 61.7 µM
  IC (TGI): 100 µM
  CC50: ≥ 100 µM
[15]
  GI50: 5.75 µM
  IC50: 10.7 µM
  IC (TGI): 28.8 µM
  CC50: ≥ 100 µM
[16]
  GI50: 7.59 µM
  IC50: 15.5 µM
  IC (TGI): 100 µM
  CC50: ≥ 100 µM
[17]
  GI50: 1.48 µM
  IC50: 2.95 µM
  IC (TGI): 3.31 µM
[18]
  GI50: 13.5 µM
  IC50: 25.1 µM
  IC (TGI): 33.1 µM
  CC50: 79.4 µM
[19]
  GI50: 100 µM
  IC50: 100 µM
  IC (TGI): 100 µM
  CC50: ≥ 100 µM
[20]
  GI50: 16.6 µM
  IC50: 100 µM
  IC (TGI): 58.9 µM
  CC50: ≥ 100 µM
[21]
  GI50: 23.4 µM
  IC50: 28.2 µM
  IC (TGI): 100 µM
  CC50: ≥ 100 µM
[22]
  GI50: 2.51 µM
  IC50: 3.98 µM
  IC (TGI): 7.59 µM
  CC50: 35.5 µM
[23]
  GI50: 13.2 µM
  IC50: 22.4 µM
  IC (TGI): 29.5 µM
  CC50: 64.6 µM
[24]
  GI50: 100 µM
  IC50: 100 µM
  IC (TGI): 100 µM
  CC50: ≥ 100 µM
